From patent publication US11427586B2, “1,2,4-oxadiazole derivatives as liver X receptor agonists” (NOVARTIS AG, priority 2019, dated 2022)
Where two headings read alike, the source gives them in different places.

How the values were obtained:
[1] = system: SCD1; assay: Measurement of SCD1 expression in SZ95-SCD1-HiBit cells (HiBiT assay); assay type: cell-based; settings: Homo sapiens, 48 h; for EC50: SCD1 protein production, luminescence, initial dilution 1:3 in DMSO, read-out: HiBit EC50
[2] = system: SZ95 sebocytes; assay: Sentinel Lipid Assay (SLA), desaturation index in SZ95 sebocytes; assay type: cell-based; settings: Homo sapiens, 72 h; for EC50: desaturation index, lowest dose used 4.6 nM, read-out: SLA EC50
Procedure, shortened: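 SZ95 human sebocytes on fibronectin-coated plates, dosed 72 h at 37 °C with 1:3 dilutions from 10 μM; lipids extracted with deuterated triglyceride internal standards and quantified by LC-MS/MS (MRM) as 11 sentinel lipids. Desaturation index from elastic-net coefficients, normalized to DMSO; Amax relative to a reference LXR agonist.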

[3] = normalized Amax based on the reference compound Amax of 100%, read-out: HiBit Normalized Amax
[4] = SZ95-SCD1-HiBit cells, compared to reference compound, read-out: HiBit Amax
[5] = normalized Amax based on the reference compound Amax of 100%, read-out: SLA Normalized Amax
[6] = SZ95 cells, compared to reference compound, read-out: SLA Amax

SMILES | Emax [1, 3] [%] | EC50 ([1]; SZ95-SCD1-HiBit cells) [nM] | Emax [1, 4] [%] | Emax [2, 5] [%] | EC50 ([2]; SZ95 cells) [nM] | Emax [2, 6] [%]
CC(C)CS(=O)(=O)c1ccccc1Oc1ccc(-c2noc(CN3C(=O)N(CCN4CCOCC4)C4(CCN(C(=O)C5CCN(C)CC5)CC4)C3=O)n2)cc1C(F)(F)F [Compound 33, 3-((3-(4-(2-(isobutylsulfonyl)phenoxy)-3-(trifluoromethyl)phenyl)-1,2,4-oxadiazol-5-yl)methyl)-8-(1-methylpiperidine-4-carbonyl)-1-(2-morpholinoethyl)-1,3,8-triazaspiro[4.5]decane-2,4-dione] | 113 | 8.53 | 107 | 121 | ≤ 4.6 | 116
CC(C)CS(=O)(=O)c1ccccc1Oc1ccc(-c2noc(CN3C(=O)N(CCN4CCOCC4)C4(CCN(C(=O)c5ccncn5)CC4)C3=O)n2)cc1C(F)(F)F [Compound 34, 3-((3-(4-(2-(isobutylsulfonyl)phenoxy)-3-(trifluoromethyl)phenyl)-1,2,4-oxadiazol-5-yl)methyl)-1-(2-morpholinoethyl)-8-(pyrimidine-4-carbonyl)-1,3,8-triazaspiro[4.5]decane-2,4-dione] | 85.7 | 0.38 | 81.5 | 171 | ≤ 4.6 | 164
CCCC(=O)N1CCC2(CC1)C(=O)N(Cc1nc(-c3ccc(Oc4ccccc4S(=O)(=O)CC(C)C)c(C(F)(F)F)c3)no1)C(=O)N2CCN1CCOCC1 [Compound 35, 8-butyryl-3-((3-(4-(2-(isobutylsulfonyl)phenoxy)-3-(trifluoromethyl)phenyl)-1,2,4-oxadiazol-5-yl)methyl)-1-(2-morpholinoethyl)-1,3,8-triazaspiro[4.5]decane-2,4-dione] | 73.1 | 0.616 | 69.5 | 122 | 17.2 | 117
CC(C)CS(=O)(=O)c1ccccc1Oc1ccc(-c2noc(CN3C(=O)N(CCC4CCOCC4)C4(CCN(C(=O)c5cnccn5)CC4)C3=O)n2)cc1C(F)(F)F [Compound 36, 3-((3-(4-(2-(isobutylsulfonyl)phenoxy)-3-(trifluoromethyl)phenyl)-1,2,4-oxadiazol-5-yl)methyl)-8-(pyrazine-2-carbonyl)-1-(2-(tetrahydro-2H-pyran-4-yl)ethyl)-1,3,8-triazaspiro[4.5]decane-2,4-dione] | 81.5 | 0.119 | 77.5 | 131 | ≤ 4.6 | 126
CC(C)CS(=O)(=O)c1ccccc1Oc1ccc(-c2noc(CN3C(=O)N(CCC4CCOCC4)C4(CCN(C(=O)c5cncnc5)CC4)C3=O)n2)cc1C(F)(F)F [Compound 37, 3-((3-(4-(2-(isobutylsulfonyl)phenoxy)-3-(trifluoromethyl)phenyl)-1,2,4-oxadiazol-5-yl)methyl)-8-(pyrimidine-5-carbonyl)-1-(2-(tetrahydro-2H-pyran-4-yl)ethyl)-1,3,8-triazaspiro[4.5]decane-2,4-dione] | 91.8 | 0.066 | 87.3 | 145 | ≤ 4.6 | 140
CC1(C)C(=O)N(Cc2nc(-c3ccc(Oc4ccccc4S(=O)(=O)CC4CCOC4)c(C(F)(F)F)c3)no2)C(=O)N1CCN1CCOCC1 (stereo not drawn) [Compound 38, 5,5-dimethyl-1-(2-morpholinoethyl)-3-((3-(4-(2-(((tetrahydrofuran-3-yl)methyl)sulfonyl)phenoxy)-3-(trifluoromethyl)phenyl)-1,2,4-oxadiazol-5-yl)methyl)imidazolidine-2,4-dione] | 75.8 | 5.26 | 72.1 | 160 | ≤ 4.6 | 154
